System: MV-4-11 cells
Experiment: Gene expression microarray analysis (Affymetrix PrimeView) and GSEA
Type: cell-based, human
Set-up: RFU PODN (11730768_x_at) / Fold change /veh PODN (11730768_x_at) / RFU LINC00158 (11744669_a_at) / Fold change /veh LINC00158 (11744669_a_at) / RFU DUSP10 (11751237_a_at) / Fold change /veh DUSP10 (11751237_a_at) / RFU ID3 (11757404_x_at) / Fold change /veh ID3 (11757404_x_at) / RFU PLEKHG5 (11737974_s_at) / Fold change /veh PLEKHG5 (11737974_s_at) / RFU LRRC4B (11730491_at) / Fold change /veh LRRC4B (11730491_at) / RFU GIMAP4 (11747438_a_at) / Fold change /veh GIMAP4 (11747438_a_at) / RFU KRT8 (11758183_x_at) / Fold change /veh KRT8 (11758183_x_at) / RFU CNN1 (11734310_a_at) / Fold change /veh CNN1 (11734310_a_at) / RFU VPS37D (11726825_at) / Fold change /veh VPS37D (11726825_at) / RFU C10orf10 (11716522_x_at) / Fold change /veh C10orf10 (11716522_x_at) / RFU KIR2DL2 /// KIR2DL4 /// KIR2DL5A /// KIR2DL5B /// KIR2DS1 /// KIR2DS2 /// KIR2DS3 /// KIR2DS4 /// KIR3DL3 /// KIR3DL3 /// KIR3DS1 (11738374_at) / Fold change /veh KIR2DL2 /// KIR2DL4 /// KIR2DL5A /// KIR2DL5B /// KIR2DS1 /// KIR2DS2 /// KIR2DS3 /// KIR2DS4 /// KIR3DL3 /// KIR3DL3 /// KIR3DS1 (11738374_at) / RFU C1QL1 (11718748_at) / Fold change /veh C1QL1 (11718748_at) / RFU TMPRSS4 (11747572_a_at) / Fold change /veh TMPRSS4 (11747572_a_at) / RFU HAMP (11756126_x_at) / Fold change /veh HAMP (11756126_x_at) / RFU RNFT2 (11725882_a_at) / Fold change /veh RNFT2 (11725882_a_at) / RFU NR4A2 (11747474_a_at) / Fold change /veh NR4A2 (11747474_a_at) / RFU ABCC12 (11746883_a_at) / Fold change /veh ABCC12 (11746883_a_at) / RFU TMEM136 (11760407_x_at) / Fold change /veh TMEM136 (11760407_x_at) / RFU CLDN22 /// WWC2 (11732394_at) / Fold change /veh CLDN22 /// WWC2 (11732394_at) / RFU HLA-DPB1 (11760878_x_at) / Fold change /veh HLA-DPB1 (11760878_x_at) / RFU SPINT1 (11716480_a_at) / Fold change /veh SPINT1 (11716480_a_at) / RFU GAP43 (11754022_s_at) / Fold change /veh GAP43 (11754022_s_at) / RFU A4GNT (11735810_at) / Fold change /veh A4GNT (11735810_at) / RFU PRB3 (11715151_x_at) / Fold change /veh PRB3 (11715151_x_at) / RFU TUBB4B (11761932_at) / Fold change /veh TUBB4B (11761932_at) / RFU CAPN14 (11732068_a_at) / Fold change /veh CAPN14 (11732068_a_at) / RFU TMCC2 (11721928_a_at) / Fold change /veh TMCC2 (11721928_a_at) / RFU IRGQ (11745062_a_at) / Fold change /veh IRGQ (11745062_a_at) / RFU FAM174B (11720279_a_at) / Fold change /veh FAM174B (11720279_a_at) / RFU TMPRSS4 (11748680_a_at) / Fold change /veh TMPRSS4 (11748680_a_at) / RFU FAM212B (11763350_a_at) / Fold change /veh FAM212B (11763350_a_at) / RFU PLEKHG5 (11743358_a_at) / Fold change /veh PLEKHG5 (11743358_a_at) / RFU ZSCAN30 (11745921_a_at) / Fold change /veh ZSCAN30 (11745921_a_at) / RFU CMKLR1 (11741424_a_at) / Fold change /veh CMKLR1 (11741424_a_at) / RFU LOC101060620 /// MAPK8IP1 (11723275_at) / Fold change /veh LOC101060620 /// MAPK8IP1 (11723275_at) / RFU SPTSSB (11747773_x_at) / Fold change /veh SPTSSB (11747773_x_at) / RFU PRSS12 (11739890_at) / Fold change /veh PRSS12 (11739890_at) / RFU BIN1 (11741810_x_at) / Fold change /veh BIN1 (11741810_x_at) / RFU WNT11 (11732464_a_at) / Fold change /veh WNT11 (11732464_a_at) / RFU C10orf10 (11716521_a_at) / Fold change /veh C10orf10 (11716521_a_at) / RFU C5orf56 (11738089_at) / Fold change /veh C5orf56 (11738089_at) / RFU CYB561 (11721691_x_at) / Fold change /veh CYB561 (11721691_x_at) / RFU ANKRD19P (11752326_a_at) / Fold change /veh ANKRD19P (11752326_a_at) / RFU OR2T12 /// OR2T33 /// OR2T8 (11738714_s_at) / Fold change /veh OR2T12 /// OR2T33 /// OR2T8 (11738714_s_at) / RFU VCAN (11748164_a_at) / Fold change /veh VCAN (11748164_a_at) / RFU JSRP1 (11732532_at) / Fold change /veh JSRP1 (11732532_at) / RFU KRTAP10-11 (11738290_x_at) / Fold change /veh KRTAP10-11 (11738290_x_at) / RFU MYO3A (11730013_a_at) / Fold change /veh MYO3A (11730013_a_at) / RFU EBF3 (11725865_a_at) / Fold change /veh EBF3 (11725865_a_at) / RFU CAMK2N1 (11719241_x_at) / Fold change /veh CAMK2N1 (11719241_x_at) / RFU C5orf56 (11738088_a_at) / Fold change /veh C5orf56 (11738088_a_at) / RFU OLFML3 (11715873_a_at) / Fold change /veh OLFML3 (11715873_a_at) / RFU LOC100653217 /// NTM (11731650_a_at) / Fold change /veh LOC100653217 /// NTM (11731650_a_at) / RFU MAPK11 (11762145_a_at) / Fold change /veh MAPK11 (11762145_a_at) / RFU FIZ1 (11724087_x_at) / Fold change /veh FIZ1 (11724087_x_at) / RFU OASL (11726364_x_at) / Fold change /veh OASL (11726364_x_at) / RFU SOX15 (11748057_x_at) / Fold change /veh SOX15 (11748057_x_at) / RFU CD79A (11719716_a_at) / Fold change /veh CD79A (11719716_a_at) / RFU HIST1H1D (11736915_at) / Fold change /veh HIST1H1D (11736915_at) / RFU CASKIN2 (11723855_a_at) / Fold change /veh CASKIN2 (11723855_a_at) / RFU LOC730098 (11760151_x_at) / Fold change /veh LOC730098 (11760151_x_at) / RFU OR4N2 (11742367_at) / Fold change /veh OR4N2 (11742367_at) / RFU PRRT2 (11749266_a_at) / Fold change /veh PRRT2 (11749266_a_at) / RFU SNX32 (11753110_a_at) / Fold change /veh SNX32 (11753110_a_at) / RFU CDHR5 (11726645_a_at) / Fold change /veh CDHR5 (11726645_a_at) / RFU RCAN1 (11760418_a_at) / Fold change /veh RCAN1 (11760418_a_at) / RFU FAM167A (11723789_a_at) / Fold change /veh FAM167A (11723789_a_at) / RFU FAM26E (11764081_at) / Fold change /veh FAM26E (11764081_at) / RFU ISYNA1 (11749810_s_at) / Fold change /veh ISYNA1 (11749810_s_at) / RFU ACY1 (11761880_at) / Fold change /veh ACY1 (11761880_at) / RFU 11764098_at / Fold change /veh 11764098_at / RFU SAMD14 (11745864_x_at) / Fold change /veh SAMD14 (11745864_x_at) / RFU NPB (11741838_a_at) / Fold change /veh NPB (11741838_a_at) / RFU TMPRSS6 (11731388_a_at) / Fold change /veh TMPRSS6 (11731388_a_at) / RFU KRTAP10-2 (11738614_at) / Fold change /veh KRTAP10-2 (11738614_at) / RFU ARHGAP8 /// PRR5-ARHGAP8 (11727945_x_at) / Fold change /veh ARHGAP8 /// PRR5-ARHGAP8 (11727945_x_at) / RFU KRTAP5-7 /// NADSYN1 (11734609_at) / Fold change /veh KRTAP5-7 /// NADSYN1 (11734609_at) / RFU RASL12 (11751679_a_at) / Fold change /veh RASL12 (11751679_a_at) / RFU CDKN2B (11736163_a_at) / Fold change /veh CDKN2B (11736163_a_at) / RFU PRF1 (11729649_at) / Fold change /veh PRF1 (11729649_at) / RFU, ZNF638 /// ZNF638-IT1 / Fold change vs veh, ZNF638 /// ZNF638-IT1 / RFU, PANK3 / Fold change vs veh, PANK3 / RFU, SH3YL1 / Fold change vs veh, SH3YL1 / RFU, ZEB2 / Fold change vs veh, ZEB2 / RFU, NRIP1 / Fold change vs veh, NRIP1 / RFU, PTTG1IP / Fold change vs veh, PTTG1IP / RFU, CAPN2 / Fold change vs veh, CAPN2 / RFU, MED14 / Fold change vs veh, MED14 / RFU, SNORA58 / Fold change vs veh, SNORA58 / RFU, C1orf63 / Fold change vs veh, C1orf63 / RFU, LRRFIP1 / Fold change vs veh, LRRFIP1 / RFU, NDUFAF7 / Fold change vs veh, NDUFAF7 / RFU, SLC12A2 / Fold change vs veh, SLC12A2 / RFU, IBTK / Fold change vs veh, IBTK / RFU, ESF1 / Fold change vs veh, ESF1 / Fold change vs veh, TMEM50B / RFU, TAOK1 / Fold change vs veh, TAOK1 / RFU, ACBD3 / Fold change vs veh, ACBD3 / RFU, TMA16 / Fold change vs veh, TMA16 / RFU, RWDD3 / Fold change vs veh, RWDD3 / RFU, BCAT1 / Fold change vs veh, BCAT1 / RFU, EDEM3 / Fold change vs veh, EDEM3 / RFU, TMEM33 / Fold change vs veh, TMEM33 / RFU, WDR75 / Fold change vs veh, WDR75 / RFU, AHCTF1 / Fold change vs veh, AHCTF1 / RFU, TFRC / Fold change vs veh, TFRC / RFU, ZDHHC17 / Fold change vs veh, ZDHHC17 / RFU, NOM1 / Fold change vs veh, NOM1 / RFU, ARL8B / Fold change vs veh, ARL8B / RFU, ZBTB11 / Fold change vs veh, ZBTB11 / RFU, TAMM41 / Fold change vs veh, TAMM41 / RFU, KIAA1704 /// LOC100996395 / Fold change vs veh, KIAA1704 /// LOC100996395 / RFU, ING1 / Fold change vs veh, ING1 / RFU, TRMT61B / Fold change vs veh, TRMT61B / RFU, FUBP3 / Fold change vs veh, FUBP3 / RFU, TP53 / Fold change vs veh, TP53 / RFU, TNKS2 / Fold change vs veh, TNKS2 / RFU, ZFP14 / Fold change vs veh, ZFP14 / RFU, ACTR2 / Fold change vs veh, ACTR2 / RFU, PPP3R1 / Fold change vs veh, PPP3R1 / RFU, PIK3R1 / Fold change vs veh, PIK3R1 / RFU, HNRNPA1 / Fold change vs veh, HNRNPA1 / RFU, RNF170 / Fold change vs veh, RNF170 / RFU, ZNF28 / Fold change vs veh, ZNF28 / RFU, RNGTT / Fold change vs veh, RNGTT / RFU, OGT / Fold change vs veh, OGT / RFU, BRD1 / Fold change vs veh, BRD1 / RFU, MARS / Fold change vs veh, MARS / RFU, ZNF655 / Fold change vs veh, ZNF655 / RFU, FAHD1 / Fold change vs veh, FAHD1 / RFU, BDP1 / Fold change vs veh, BDP1 / RFU, LRRCC1 / Fold change vs veh, LRRCC1 / RFU, ARID1A / Fold change vs veh, ARID1A / RFU, ZNF146 / Fold change vs veh, ZNF146 / RFU, ZNF330 / Fold change vs veh, ZNF330 / RFU, GPN3 / Fold change vs veh, GPN3 / RFU, C9orf123 / Fold change vs veh, C9orf123 / RFU, N4BP2L2 / Fold change vs veh, N4BP2L2 / RFU, ARFIP1 / Fold change vs veh, ARFIP1 / RFU, FAM179B / Fold change vs veh, FAM179B / RFU, BCL10 / Fold change vs veh, BCL10 / RFU, UHRF1BP1L / Fold change vs veh, UHRF1BP1L / RFU, BET1 / Fold change vs veh, BET1 / RFU, CNOT2 / Fold change vs veh, CNOT2 / RFU, ZNF268 / Fold change vs veh, ZNF268 / Fold change vs veh, ZNF507 / RFU, DGCR2 / Fold change vs veh, DGCR2 / RFU, WDSUB1 / Fold change vs veh, WDSUB1 / Fold change vs veh, HSP90B1 /// MIR3652 / RFU, ADSS / Fold change vs veh, ADSS / RFU, GK / Fold change vs veh, GK / RFU, ZNF148 / Fold change vs veh, ZNF148 / RFU, TAF9 / Fold change vs veh, TAF9 / RFU, SLC1A5 / Fold change vs veh, SLC1A5 / RFU, SLMO2 / Fold change vs veh, SLMO2 / RFU, ABCC4 / Fold change vs veh, ABCC4 / RFU, LOC101060439 /// RAP1B / Fold change vs veh, LOC101060439 /// RAP1B / RFU, RFX7 / Fold change vs veh, RFX7 / RFU, GTPBP10 / Fold change vs veh, GTPBP10 / RFU, CNEP1R1 / Fold change vs veh, CNEP1R1 / RFU, BIVM-ERCC5 /// ERCC5 / Fold change vs veh, BIVM-ERCC5 /// ERCC5 / RFU, ILF3 / Fold change vs veh, ILF3 / RFU 11762660_at / Fold change /veh 11762660_at / RFU VCAN (11757783_s_at) / Fold change /veh VCAN (11757783_s_at) / RFU DDX43 (11728927_at) / Fold change /veh DDX43 (11728927_at) / RFU KRT8 (11758188_x_at) / Fold change /veh KRT8 (11758188_x_at) / RFU NKD1 (11759106_at) / Fold change /veh NKD1 (11759106_at) / RFU SRD5A1 (11742802_a_at) / Fold change /veh SRD5A1 (11742802_a_at) / RFU TPSAB1 /// TPSB2 (11721975_s_at) / Fold change /veh TPSAB1 /// TPSB2 (11721975_s_at) / RFU GSTM3 (11746129_a_at) / Fold change /veh GSTM3 (11746129_a_at) / RFU IL23R (11737362_x_at) / Fold change /veh IL23R (11737362_x_at) / RFU TMEM51 (11727254_a_at) / Fold change /veh TMEM51 (11727254_a_at) / RFU PIWIL2 (11732686_x_at) / Fold change /veh PIWIL2 (11732686_x_at) / RFU ORM1 (11744905_x_at) / Fold change /veh ORM1 (11744905_x_at) / RFU CCDC152 (11743942_at) / Fold change /veh CCDC152 (11743942_at) / RFU ECM1 (11717891_a_at) / Fold change /veh ECM1 (11717891_a_at) / RFU IL23R (11748794_a_at) / Fold change /veh IL23R (11748794_a_at) / RFU TNFAIP8L3 (11732012_x_at) / Fold change /veh TNFAIP8L3 (11732012_x_at) / RFU MBOAT4 (11741988_at) / Fold change /veh MBOAT4 (11741988_at) / RFU 11764193_at / Fold change /veh 11764193_at / RFU TMEM53 (11763286_at) / Fold change /veh TMEM53 (11763286_at) / RFU MAGEB2 (11727129_at) / Fold change /veh MAGEB2 (11727129_at) / RFU TMEM200A (11744735_a_at) / Fold change /veh TMEM200A (11744735_a_at) / RFU CCDC152 (11751479_a_at) / Fold change /veh CCDC152 (11751479_a_at) / RFU FAM211A (11726209_a_at) / Fold change /veh FAM211A (11726209_a_at) / RFU RGS16 (11746705_a_at) / Fold change /veh RGS16 (11746705_a_at) / RFU VCAN (11755009_s_at) / Fold change /veh VCAN (11755009_s_at) / RFU RHOB (11743442_s_at) / Fold change /veh RHOB (11743442_s_at) / RFU RGS16 (11720943_a_at) / Fold change /veh RGS16 (11720943_a_at) / RFU RGS16 (11720944_at) / Fold change /veh RGS16 (11720944_at) / RFU, VPS4B / Fold change vs veh, VPS4B / RFU, CREB1 / Fold change vs veh, CREB1 / RFU, DNAJC13 / Fold change vs veh, DNAJC13 / RFU, GNAQ / Fold change vs veh, GNAQ / RFU, CDK5R1 / Fold change vs veh, CDK5R1 / RFU, ZRANB3 / Fold change vs veh, ZRANB3 / RFU, CUL4A / Fold change vs veh, CUL4A / RFU, CCNY / Fold change vs veh, CCNY / RFU, UFL1 / Fold change vs veh, UFL1 / RFU, COG3 / Fold change vs veh, COG3 / RFU, DIAPH2 / Fold change vs veh, DIAPH2 / RFU, SKA2 / Fold change vs veh, SKA2 / RFU, AFF3 / Fold change vs veh, AFF3 / RFU, LMF1 / Fold change vs veh, LMF1 / RFU, IPO11 / Fold change vs veh, IPO11 / RFU, DFFB / Fold change vs veh, DFFB / RFU, FOXP1 / Fold change vs veh, FOXP1 / RFU, CARD8 / Fold change vs veh, CARD8 / RFU, STRN3 / Fold change vs veh, STRN3 / RFU, ADK / Fold change vs veh, ADK / RFU, RASSF2 / Fold change vs veh, RASSF2 / RFU, WIPF1 / Fold change vs veh, WIPF1 / RFU, LARP1B / Fold change vs veh, LARP1B / RFU, RASA1 / Fold change vs veh, RASA1 / RFU, RB1 / Fold change vs veh, RB1 / RFU, PPFIA1 / Fold change vs veh, PPFIA1 / RFU, MAT2A / Fold change vs veh, MAT2A / RFU, CCT5 / Fold change vs veh, CCT5 / RFU, WDR92 / Fold change vs veh, WDR92 / RFU, CUX1 / Fold change vs veh, CUX1 / RFU, TTC7A / Fold change vs veh, TTC7A / RFU, TMEM135 / Fold change vs veh, TMEM135 / RFU, DEPTOR / Fold change vs veh, DEPTOR / RFU, CPM / Fold change vs veh, CPM / RFU, DNAJB6 / Fold change vs veh, DNAJB6 / RFU, CACNA2D3 / Fold change vs veh, CACNA2D3 / RFU, DTX4 / Fold change vs veh, DTX4 / RFU, TFCP2 / Fold change vs veh, TFCP2 / RFU, GMCL1 /// GMCL1P1 / Fold change vs veh, GMCL1 /// GMCL1P1 / RFU, AEBP2 / Fold change vs veh, AEBP2 / RFU, SNHG1 /// SNORD22 /// SNORD25 /// SNORD26 /// SNORD27 /// SNORD28 /// SNORD29 /// SNORD31 / Fold change vs veh, SNHG1 /// SNORD22 /// SNORD25 /// SNORD26 /// SNORD27 /// SNORD28 /// SNORD29 /// SNORD31 / Fold change (Aza/veh), C12orf56 (ProbeSet 11735607_a_at) / Fold change (ACY-1035/veh), C12orf56 (ProbeSet 11735607_a_at) / Fold change (Aza/veh), FGFR1OP (ProbeSet 11751329_s_at) / Fold change (ACY-1035/veh), FGFR1OP (ProbeSet 11751329_s_at) / Fold change (Aza/veh), VPS36 (ProbeSet 11739960_a_at) / Fold change (ACY-1035/veh), VPS36 (ProbeSet 11739960_a_at) / RFU SYPL1 (11715823_x_at) / Fold change /veh SYPL1 (11715823_x_at) / RFU IGFBP7 (11715501_s_at) / Fold change /veh IGFBP7 (11715501_s_at) / RFU REEP3 (11722064_at) / Fold change /veh REEP3 (11722064_at) / RFU IGLL1 (11728026_x_at) / Fold change /veh IGLL1 (11728026_x_at): dose or concentration left out as unconfirmed
Details: ProbeSet 11720154_at; LIST B

## Nc1ncn([C@@H]2O[C@H](CO)[C@@H](O)[C@H]2O)c(=O)n1 [azacitidine]
  Fold change vs veh, NRIP1: 0.86

Source: publication PMC5218480 (PLoS ONE, 2017)
